The text below walks through data of ChEMBL document CHEMBL1156272, “Discovery and SAR of novel pyrazole-based thioethers as cathepsin S inhibitors. Part 2: Modification of P3, P4, and P5 regions” (Bioorg Med Chem Lett, 2010).

Data set [1] addresses T1, Cathepsin S (Homo sapiens, UniProt P25774). Kind of data set: Inhibition of human cathepsin S by ADAM-28 substrate-based fluorescence assay.
The target of data set [2] is T1, Cathepsin S. In words: Inhibition of cathepsin S in human JY cells assessed as accumulation of invariant chain p10 fragment after 24 hrs by Western blot analysis. It is filed as cell-based.
The target of data set [3] is Voltage-gated inwardly rectifying potassium channel KCNH2 (Homo sapiens, UniProt Q12809). Kind of data set: Inhibition of human ERG by astemizole binding assay.
Sequence of Voltage-gated inwardly rectifying potassium channel KCNH2 (Q12809 whole entry): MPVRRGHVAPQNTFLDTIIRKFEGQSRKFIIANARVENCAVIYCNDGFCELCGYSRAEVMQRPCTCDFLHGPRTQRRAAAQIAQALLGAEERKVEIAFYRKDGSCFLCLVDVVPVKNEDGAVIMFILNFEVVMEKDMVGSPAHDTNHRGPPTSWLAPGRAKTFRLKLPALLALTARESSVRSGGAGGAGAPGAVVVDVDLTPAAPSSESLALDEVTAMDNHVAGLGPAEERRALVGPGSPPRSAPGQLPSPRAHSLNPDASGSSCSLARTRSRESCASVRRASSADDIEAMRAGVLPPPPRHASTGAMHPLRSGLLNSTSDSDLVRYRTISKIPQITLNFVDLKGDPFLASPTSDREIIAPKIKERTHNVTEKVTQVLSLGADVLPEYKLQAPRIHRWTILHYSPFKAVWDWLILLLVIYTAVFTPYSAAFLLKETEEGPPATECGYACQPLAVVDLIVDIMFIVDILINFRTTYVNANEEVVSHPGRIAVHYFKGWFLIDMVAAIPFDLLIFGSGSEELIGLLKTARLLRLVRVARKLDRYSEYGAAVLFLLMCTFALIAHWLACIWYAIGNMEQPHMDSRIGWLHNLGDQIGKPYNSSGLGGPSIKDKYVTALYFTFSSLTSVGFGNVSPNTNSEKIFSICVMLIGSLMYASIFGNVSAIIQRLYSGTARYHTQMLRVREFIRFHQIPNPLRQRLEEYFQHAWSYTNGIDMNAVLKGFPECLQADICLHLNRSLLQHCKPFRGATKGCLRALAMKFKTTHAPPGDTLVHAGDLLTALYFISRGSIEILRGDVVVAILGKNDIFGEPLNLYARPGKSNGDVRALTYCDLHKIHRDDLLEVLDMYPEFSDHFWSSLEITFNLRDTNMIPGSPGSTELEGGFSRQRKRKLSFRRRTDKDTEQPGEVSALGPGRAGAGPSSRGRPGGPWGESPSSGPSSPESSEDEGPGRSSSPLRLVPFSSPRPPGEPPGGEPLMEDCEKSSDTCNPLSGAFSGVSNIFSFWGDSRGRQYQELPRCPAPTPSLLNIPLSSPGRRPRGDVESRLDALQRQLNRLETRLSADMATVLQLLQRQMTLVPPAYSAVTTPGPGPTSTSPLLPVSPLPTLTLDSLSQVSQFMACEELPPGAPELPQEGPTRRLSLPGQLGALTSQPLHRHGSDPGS

Molecules are shown by their SMILES.

T1 sequence (P25774 whole entry, the tested form may be a part): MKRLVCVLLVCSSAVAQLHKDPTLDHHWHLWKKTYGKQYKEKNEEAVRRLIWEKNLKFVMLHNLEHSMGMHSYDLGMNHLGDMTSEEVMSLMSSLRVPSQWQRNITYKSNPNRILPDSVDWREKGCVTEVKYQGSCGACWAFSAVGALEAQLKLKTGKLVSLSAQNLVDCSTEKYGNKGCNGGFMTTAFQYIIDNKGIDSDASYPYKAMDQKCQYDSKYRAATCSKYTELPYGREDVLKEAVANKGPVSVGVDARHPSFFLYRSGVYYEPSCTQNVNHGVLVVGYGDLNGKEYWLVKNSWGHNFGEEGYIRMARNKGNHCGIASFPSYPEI

As a reminder, the IC50 is the midpoint of a concentration-inhibition curve. As for `CS(=O)(=O)N1CCc2c(c(-c3ccc(C(F)(F)F)c(SCCN)c3)nn2CC(O)CN2CCCCC2)C1` (racemic), the IC50 in data set [1] amounted to 1130 nM.

Molecule `CC(=O)N1CCc2c(c(-c3ccc(C(F)(F)F)c(SCCN4CCC(F)CC4)c3)nn2C[C@@H](O)CN2CCCCC2)C1` yielded an IC50 in data set [1] of 385 nM.

For the molecule `CS(=O)(=O)N1CCc2c(c(-c3ccc(C(F)(F)F)c(SCCN4CCCCC4)c3)nn2CC(O)CN2CCC(C(=O)N3CCCC3)CC2)C1` (racemic), the IC50 in data set [2] was determined as 96 nM.

In the case of `CS(=O)(=O)N1CCc2c(c(-c3ccc(C(F)(F)F)c(SCCN4CCCCC4)c3)nn2CC(O)CN2CCOCC2)C1` (racemic), the IC50 in data set [1] worked out at 325 nM; in data set [2], 889 nM.

Consider `CS(=O)(=O)N1CCc2c(c(-c3ccc(C(F)(F)F)c(SCCN4CCCCC4)c3)nn2CC(O)CN2CCC(c3ccccn3)CC2)C1` (racemic), for which the “inhibition (INH)” value in data set [3] was “Active”. Moreover, the IC50 in data set [2] came out at 62 nM.

In the case of `CS(=O)(=O)N1CCc2c(c(-c3ccc(C(F)(F)F)c(SCCN4CCCCC4)c3)nn2CC(O)CN2CCC(N3CCCC3=O)CC2)C1` (racemic), in data set [2], the IC50 was 152 nM.

`CCCNCC(O)Cn1nc(-c2ccc(C(F)(F)F)c(SCCN3CCCCC3)c2)c2c1CCN(S(C)(=O)=O)C2` (racemic) came in with an IC50 in data set [1] of 595 nM.

In turn, `NC(=O)N1CCc2c(c(-c3ccc(C(F)(F)F)c(SCCN4CCC(F)CC4)c3)nn2C[C@@H](O)CN2CCCCC2)C1` registered an IC50 in data set [1] of 235 nM.

For `CS(=O)(=O)N1CCc2c(c(-c3ccc(C(F)(F)F)c(SCCN4CCCCC4)c3)nn2CC(O)CN2CCC(c3ccccc3C#N)CC2)C1` (racemic), the “inhibition (INH)” value in data set [3] was “Active”. Also, the IC50 was 10 nM in data set [1] and 160 nM in data set [2].

On to `CS(=O)(=O)N1CCc2c(c(-c3ccc(C(F)(F)F)c(SCCN4CCCCC4)c3)nn2CC(O)CN2CCN(C3CC3)CC2)C1` (racemic), for which, in data set [2], the IC50 worked out at 220 nM.

For the molecule `CS(=O)(=O)N1CCc2c(c(-c3ccc(C(F)(F)F)c(SCCN4CCCCC4)c3)nn2CC(O)CN2CCCC2)C1` (racemic), the values for the IC50 in data set [1] and in data set [2] were 335 nM and 401 nM, respectively.

For the molecule `CS(=O)(=O)N1CCc2c(c(-c3ccc(C(F)(F)F)c(SCCN4CCOCC4)c3)nn2CC(O)CN2CCCCC2)C1` (racemic), the figures for the IC50 in data set [1] and in data set [2] were 420 nM and 2520 nM, respectively.

In the case of `CS(=O)(=O)N1CCc2c(c(-c3ccc(C(F)(F)F)c(SCCN4CCCC4)c3)nn2CC(O)CN2CCCCC2)C1` (racemic), the IC50 in data set [2] was found to be 458 nM.

As to `CS(=O)(=O)N1CCc2c(c(-c3ccc(C(F)(F)F)c(SCCN4CCCCC4)c3)nn2CC(O)CN2CCCCC2)C1` (racemic), the IC50 was 204 nM in data set [1] and 335 nM in data set [2].

Take `CS(=O)(=O)N1CCc2c(c(-c3ccc(C(F)(F)F)c(SCCN4CCC(F)CC4)c3)nn2C[C@@H](O)CN2CCCCC2)C1`: the IC50 in data set [1] amounted to 58 nM; in data set [2], 120 nM.

`NC(=O)C(=O)N1CCc2c(c(-c3ccc(C(F)(F)F)c(SCCN4CCC(F)CC4)c3)nn2C[C@@H](O)CN2CCCCC2)C1`: the results for the IC50 in data set [1] and in data set [2] were 70 nM and 190 nM, respectively.

`CS(=O)(=O)N1CCc2c(c(-c3ccc(C(F)(F)F)c(SCCN4CCC(F)CC4)c3)nn2C[C@H](O)CN2CCCCC2)C1`: the IC50 in data set [1] is 395 nM; in data set [2], 810 nM.

For `O=C(c1cccs1)N1CCc2c(c(-c3ccc(C(F)(F)F)c(SCCN4CCC(F)CC4)c3)nn2C[C@@H](O)CN2CCCCC2)C1`, the IC50 in data set [1] turned out to be 355 nM.

Regarding `CS(=O)(=O)N1CCc2c(c(-c3ccc(C(F)(F)F)c(SCCN4CCC(F)CC4)c3)nn2CC(O)CN2CCCCC2)C1` (racemic), the IC50 in data set [2] was found to be 493 nM.

`O=C(CO)N1CCc2c(c(-c3ccc(C(F)(F)F)c(SCCN4CCC(F)CC4)c3)nn2C[C@@H](O)CN2CCCCC2)C1` had an IC50 in data set [1] of 235 nM.

For `O=C(c1nc[nH]n1)N1CCc2c(c(-c3ccc(C(F)(F)F)c(SCCN4CCC(F)CC4)c3)nn2C[C@@H](O)CN2CCCCC2)C1`, the IC50 is 205 nM in data set [1] and 320 nM in data set [2].

As for `CC(O)C(=O)N1CCc2c(c(-c3ccc(C(F)(F)F)c(SCCN4CCC(F)CC4)c3)nn2C[C@@H](O)CN2CCCCC2)C1` (stereo partly specified), the IC50 in data set [1] came out at 245 nM.

With `CS(=O)(=O)N1CCc2c(c(-c3ccc(C(F)(F)F)c(SCCN4CCCCC4)c3)nn2CC(O)CN2CCC(C3CCCC3)CC2)C1` (racemic), the figures for the IC50 in data set [1] and in data set [2] were 218 nM and 81 nM, respectively.

Regarding `OC(CN1CCCCC1)Cn1nc(-c2ccc(C(F)(F)F)c(SCCN3CCC(F)CC3)c2)c2c1CCNC2` (stereo unspecified), in data set [1], the IC50 turned out to be 9600 nM.
